Data: PMC8233901, “D-Amino Acid-Containing Lipopeptides Derived from the Lead Peptide BP100 with Activity against Plant Pathogens” (International Journal of Molecular Sciences, 2021)
Like-named read-outs stand apart in the source and are kept apart here. Where a SMILES comes first, the peptide text is derived from it. [ ]: non-standard residue; d: D form. The star is where a group is joined. Lauroyl = CCCCCCCCCCCC(=O)*; Hexanoyl = CCCCCC(=O)*; Butyryl = CCCC(=O)*

Experiments:
tobacco leaves [1] = test: Effect of peptide infiltration on tobacco leaves (lesion size); type: in vivo; details: ± confidence interval; for Size of the lesion (mm) 50 µM: 100 µL infiltrated into mesophyll of tobacco leaves
Experimental: The lipopeptides were evaluated for their effect upon infiltration on tobacco leaves as described previously. Peptide solutions of 50, 150 and 250 μM were infiltrated (100 μL) into the mesophylls of fully expanded tobacco leaves. Infiltrations were carried out in a single leaf, and for each peptide and dose, at least three leaves randomly distributed in different plants were infiltrated. Control infiltrations with water (negative control) or melittin (positive control) at the same molar concentration were performed. The appearance of symptoms on the leaves was followed for 48 h after infiltration and measured as a lesion diameter.

horse erythrocytes [2] = test: Hemolytic activity (hemoglobin release from erythrocytes); type: cell-based; details: 37 °C, relative to melittin, ± confidence interval (α = 0.05)
Experimental: The hemolytic activity of the compounds was evaluated by determining hemoglobin release from erythrocyte suspensions of horse blood (5% vol/vol) (Oxoid) as previously described. Blood was centrifuged at 6000 g for 5 min, washed three times with tris(hydroxymethyl)aminomethane (TRIS) buffer (10 mM TRIS, 150 mM NaCl, pH 7.2) and diluted 10 times. Compounds were solubilized in TRIS buffer at 750, 500, 300 and 100 μM and mixed with horse erythrocytes (1:1 v/v). The mixture was incubated under continuous shaking for 1 h at 37 °C. Then, the tubes were centrifuged at 3500 g for 10 min, 80 μL aliquots of the supernatant transferred to 100-well microplates (Bioscreen), diluted with 80 μL water, and the absorbance measured at 540 nm (Bioscreen). Complete hemolysis was obtained by the addition of melittin at 100 μM (Sigma-Aldrich Corporation, Madrid, Spain). The percentage of hemolysis (H) was calculated using the equation: H = 100 × [(Op−Ob)/(Om−Ob)], where Op is the density for a given compound concentration, Ob for the buffer, and Om for the melittin-positive control.

tobacco leaves [3] = test system: tobacco leaves; set-up: method as in earlier work; details: all-L parent lipopeptides, ± confidence interval, cited from earlier work
horse erythrocytes [4] = test system: horse erythrocytes; set-up: method as in earlier work; details: all-L parent lipopeptides, ± confidence interval (α = 0.05), cited from earlier work
[5] = D-amino acid lipopeptides, lesion diameter, 48 h, at least three leaves
[6] = D-amino acid lipopeptides, 100 µL infiltrated into tobacco leaves, lesion diameter, 48 h, at least three leaves
[7] = D-amino acid lipopeptides, 250 µM, 100 µL infiltrated into tobacco leaves, lesion diameter, 48 h, at least three leaves
[8] = Table 2, 250 µM infiltrated into tobacco leaves
[9] = D-amino acid lipopeptides, 250 µM, TRIS buffer pH 7.2, 1 h
[10] = D-amino acid lipopeptides, TRIS buffer pH 7.2, 1 h

Compound | Size of the lesion (mm) 50 µM (tobacco leaves [1]; [5]) | Size of the lesion (mm) 150 µM (tobacco leaves [1]; [6]) | Size of the lesion (mm) 250 µM (tobacco leaves [1]; [7]) | Size of the lesion (mm) 250 µM (tobacco leaves [1]; [8]) | Hemolysis (%) 250 µM (horse erythrocytes [2]; Table 2, 250 µM, 1 h) | Hemolysis (%) 250 µM (horse erythrocytes [2]; [9]) | Hemolysis (%) 375 µM (horse erythrocytes [2]; [10]) | Hemolysis (%) 150 µM (horse erythrocytes [2]; [10]) | Size of the lesion (mm) 50 µM (tobacco leaves [3]; 50 µM) | Size of the lesion (mm) 150 µM (tobacco leaves [3]; 150 µM) | Size of the lesion (mm) 250 µM (tobacco leaves [3]; 250 µM) | Hemolysis (%) 50 µM (horse erythrocytes [4]; 50 µM) | Hemolysis (%) 250 µM (horse erythrocytes [4]; 250 µM) | Hemolysis (%) 375 µM (horse erythrocytes [4]; 375 µM)
CCCCCC(=O)NCCCC[C@H](NC(=O)[C@H](Cc1ccc(O)cc1)NC(=O)[C@H](CCCCN)NC(=O)[C@H](CC(C)C)NC(=O)[C@@H](NC(=O)[C@H](CCCCN)NC(=O)[C@H](CCCCN)NC(=O)[C@@H](Cc1ccccc1)NC(=O)[C@H](CC(C)C)NC(=O)[C@H](CCCCN)NC(=O)[C@H](CCCCN)NC(C)=O)[C@@H](C)CC)C(N)=O [BP495, Ac-KKLfKKILKYK(COC5H11)-NH2] (Ac-KKL[dF]KKILKYK(Hexanoyl)-NH2) | 3 ± 0 mm | 6 ± 2 mm | 11 ± 2 mm | 11 ± 2 mm | 0.6 ± 1% | – | – | – | – | – | – | – | – | –
CCCC(=O)NCCCC[C@H](NC(=O)[C@H](Cc1ccc(O)cc1)NC(=O)[C@H](CCCCN)NC(=O)[C@H](CC(C)C)NC(=O)[C@@H](NC(=O)[C@H](CCCCN)NC(=O)[C@H](CCCCN)NC(=O)[C@@H](Cc1ccccc1)NC(=O)[C@H](CC(C)C)NC(=O)[C@H](CCCCN)NC(=O)[C@H](CCCCN)NC(C)=O)[C@@H](C)CC)C(N)=O [BP496, Ac-KKLfKKILKYK(COC3H7)-NH2] (Ac-KKL[dF]KKILKYK(Butyryl)-NH2) | 3 ± 0.5 mm | 4 ± 0.5 mm | 10 ± 3 mm | 10 ± 3 mm | – | 1 ± 1% | 1 ± 0.5% | – | – | – | – | – | – | –
CCCCCCCCCCCC(=O)NCCCC[C@H](NC(=O)[C@H](CC(C)C)NC(=O)[C@@H](NC(=O)[C@H](CCCCN)NC(=O)[C@H](CCCCN)NC(=O)[C@@H](Cc1ccccc1)NC(=O)[C@H](CC(C)C)NC(=O)[C@H](CCCCN)NC(=O)[C@H](CCCCN)NC(C)=O)[C@@H](C)CC)C(=O)N[C@@H](Cc1ccc(O)cc1)C(=O)N[C@@H](CC(C)C)C(N)=O [BP497, Ac-KKLfKKILK(COC11H23)YL-NH2] | 5 ± 1 mm | 18 ± 1 mm | 18 ± 0 mm | 18 ± 0 mm | – | 100 ± 2% | 100 ± 4% | 100 ± 2% | – | – | – | – | – | –
CCCC(=O)NCCCC[C@H](NC(=O)[C@@H](Cc1ccccc1)NC(=O)[C@H](CC(C)C)NC(=O)[C@H](CCCCN)NC(=O)[C@H](CCCCN)NC(C)=O)C(=O)N[C@@H](CCCCN)C(=O)N[C@H](C(=O)N[C@@H](CC(C)C)C(=O)N[C@@H](CCCCN)C(=O)N[C@@H](Cc1ccc(O)cc1)C(=O)N[C@@H](CC(C)C)C(N)=O)[C@@H](C)CC [BP498, Ac-KKLfK(COC3H7)KILKYL-NH2] | 4 ± 3 mm | 6 ± 2 mm | 6 ± 1 mm | 6 ± 1 mm | – | 21 ± 3% | – | – | – | – | – | – | – | –
CCCC(=O)NCCCC[C@H](NC(=O)[C@H](CC(C)C)NC(=O)[C@@H](NC(=O)[C@H](CCCCN)NC(=O)[C@H](CCCCN)NC(=O)[C@@H](Cc1ccccc1)NC(=O)[C@H](CC(C)C)NC(=O)[C@H](CCCCN)NC(=O)[C@H](CCCCN)NC(C)=O)[C@@H](C)CC)C(=O)N[C@@H](Cc1ccc(O)cc1)C(=O)N[C@@H](CC(C)C)C(N)=O [BP499, Ac-KKLfKKILK(COC3H7)YL-NH2] | 6 ± 1 mm | 8 ± 2 mm | 8 ± 2 mm | 8 ± 2 mm | – | 11 ± 1% | – | – | – | – | – | – | – | –
CCCCCCCCCCCC(=O)NCCCC[C@H](NC(=O)[C@H](CCCCN)NC(=O)[C@H](CCCCN)NC(C)=O)C(=O)N[C@H](Cc1ccccc1)C(=O)N[C@@H](CCCCN)C(=O)N[C@@H](CCCCN)C(=O)N[C@H](C(=O)N[C@@H](CC(C)C)C(=O)N[C@@H](CCCCN)C(=O)N[C@@H](Cc1ccc(O)cc1)C(=O)N[C@@H](CC(C)C)C(N)=O)[C@@H](C)CC [BP500, Ac-KKK(COC11H23)fKKILKYL-NH2] (Ac-KKK(Lauroyl)[dF]KKILKYL-NH2) | 3 ± 2 mm | 6 ± 2 mm | 9 ± 3 mm | 9 ± 3 mm | – | 71 ± 8% | – | 71 ± 2% | – | – | – | – | – | –
Ac-KKLFKKILKK(COC3H7)L-NH2 [BP389, analog of BP475 with all L-amino acids] | – | – | – | – | – | – | – | – | 4 ± 1 mm | 7 ± 1 mm | 9 ± 3 mm | 9 ± 4% | 22 ± 2% | 39 ± 3%
